Reference: US20220041578A1, “ISOINDOLINE COMPOUND, AND PREPARATION METHOD, PHARMACEUTICAL COMPOSITION, AND APPLICATION OF ISOINDOLINE COMPOUND” (Shanghai Institute of Meteria Medica, Chinese Academy of …, priority 2018, published 2022)

test system: MM.1S cells; assay: Effect of the compound on the proliferation of MM.1S cells (MTS); format: cell-based; details: Homo sapiens, MM1.S, 168 h, 7 days, read-out: Cell inhibitory activity (IC50)
Procedure: MM.1S cells were cultured with 1640 plus 10% fetal bovine serum and collected. The cell concentration was diluted according to the action time of 7 days, and 180 ul cell suspension was added to each well of the 96-well cell plate to make the cell count to be 20,000. 20 ul of DMSO with a final concentration of 0.2% was added to the control cell wells. The compound was diluted 5-fold with the 10 mM stock solution, and 20 ul was also added to the compound cell wells (the final concentration of DMSO is 0.2%). The cells were placed in a 37° C., 5% CO2 incubator and incubated for 7 days. After preparing the reaction solution according to the MTS kit (Promega, G5430), 20 μL was added to each well, incubated in a 37° C., 5% CO2 incubator for 3-4 h. Read the 490 nm absorbance value with a microtiter plate, and used the 690 nm absorbance value as the background value and OD490-OD690 as the final initial data. The formula for calculating the inhibition rate of the compound is: inhibition rate=(OD DMSO-ODcompound)/(ODDMSO-Oblank)×100%. The compound's proliferation inhibition IC50 was fitted by Graph Pad Prism 5.0. The experiment was repeated three times, and three parallel experiments were used to calculate the average and standard deviation each time.

Structure (SMILES) | IC50 [nM]
O=C1CCC(N2Cc3c(OCc4cn(-c5ccc(CCO)cc5)nn4)cccc3C2=O)C(=O)N1 (stereo not drawn) [Compound 33] | < 150
O=C1CCC(N2Cc3c(OCc4cn([C@@H](CO)Cc5ccccc5)nn4)cccc3C2=O)C(=O)N1 (stereo partly drawn) [Compound 53] | < 150
O=C1CCC(N2Cc3c(OCc4cn(Cc5ccncc5)nn4)cccc3C2=O)C(=O)N1 (stereo not drawn) [Compound 2] | 150 to 20000
O=C1CCC(N2Cc3c(OCc4cn(-c5ccc(OC6COC6)cc5)nn4)cccc3C2=O)C(=O)N1 (stereo not drawn) [Compound 31, 3-(4-((1-(4-(epoxypropanoxy-3-oxy)phenyl)-1H-1,2,3-triazol-4-)methoxy)-1-oxoisoindolin-2-)piperidine-2,6-dione] | < 150
O=C1CCC(N2Cc3c(NCc4cnc(-c5ccccc5OC(F)(F)F)o4)cccc3C2=O)C(=O)N1 (stereo not drawn) [Compound 94] | 150 to 20000
O=C1CCC(N2Cc3c(OCc4cn(Cc5cccc(C(F)(F)F)c5)nn4)cccc3C2=O)C(=O)N1 (stereo not drawn) [Compound 6, 3-(1-oxo-4-((1-(3-(trifluoromethyl)benzyl)-1H-1,2,3-triazol-4-)methoxy)isoindolin-2-) piperidine-2,6-dione] | < 150
O=C1CCC(N2C(=O)c3cccc(OCc4cn(-c5ccc(OC(F)(F)F)cc5)nn4)c3C2=O)C(=O)N1 (stereo not drawn) [Compound 38, 2-(2,6-dioxopiperidine-3-)-4-((1-(4-trifluoromethoxyphenyl)-1H-1,2,3-triazol-4-)methoxy) isoindolin-1,3-dione] | 150 to 20000
CN(C)c1cccc(Cn2cc(COc3cccc4c3CN(C3CCC(=O)NC3=O)C4=O)nn2)c1 (stereo not drawn) [Compound 9] | < 150
CN(C)CCn1ccc2cc(-n3cc(COc4cccc5c4CN(C4CCC(=O)NC4=O)C5=O)nn3)ccc21 (stereo not drawn) [Compound 27, 3-(4-((1-(1-(2-(dimethylamino)ethyl)-1H-indol-5-)-1H-1,2,3-triazol-4-)methoxy)-1-oxoisoindolin-2-)piperidine-2,6-dione] | < 150
COc1cccc(Cn2cc(COc3cccc4c3CN(C3CCC(=O)NC3=O)C4=O)nn2)c1 (stereo not drawn) [Compound 5] | < 150
C[C@H](c1ccccc1)n1cc(COc2cccc3c2CN(C2CCC(=O)NC2=O)C3=O)nn1 (stereo partly drawn) [Compound 50] | < 150
O=C1CCC(N2Cc3c(OCCC4CN(c5ccnc6ccccc56)C4)cccc3C2=O)C(=O)N1 (stereo not drawn) [Compound 69, 3-(1-oxo-4-(2-(1-(quinolin-4-)azetidin-3-)ethoxy)isoindolin-2-) piperidine-2,6-dione] | 150 to 20000
O=C1CCC(N2Cc3c(OCc4cnc(-c5ncc(C(F)(F)F)s5)s4)cccc3C2=O)C(=O)N1 (stereo not drawn) [Compound 47] | < 150
Cc1c(COc2cccc3c2CN(C2CCC(=O)NC2=O)C3=O)cnn1-c1c(Cl)cc(OC(F)(F)F)cc1Cl (stereo not drawn) [Compound 84, 3-(4-((1-(2,6-dichloro-4-(trifluoromethoxy)phenyl)-5-methyl-1H-pyrazol-4-yl)methoxy)-1-isoindolin-2-1) piperidine-2,6-dione] | < 150
O=C1CCC(N2Cc3c(OCC4CCN(c5ccnc6ccccc56)CC4)cccc3C2=O)C(=O)N1 (stereo not drawn) [Compound 67, 3-(1-oxo-4-((1-(quinolin-4-)piperidin-4-)methoxy)isoindolin-2-) piperidin-2,6-dione] | < 150
O=C1CCC(N2Cc3c(OCc4cn(Cc5cccc(-n6ccnc6)c5)nn4)cccc3C2=O)C(=O)N1 (stereo not drawn) [Compound 14, 3-(4-((1-(3-(1H-imidazol-1-)benzyl)-1H-1,2,3-triazol-4-)methoxy)-1-oxoisoindolin-2-) piperidine-2,6-dione] | < 150
O=C1CCC(N2Cc3c(OCc4cn(Cc5cccc(OC(F)(F)F)c5)nn4)cccc3C2=O)C(=O)N1 (stereo not drawn) [Compound 11] | < 150

Structure (SMILES) | IC50 [nM]
O=C1CCC(N2Cc3c(OCc4cn(-c5ccccc5)nn4)cccc3C2=O)C(=O)N1 (stereo not drawn) [Compound 15, 3-(1-oxo-4-((1-phenyl-1H-1,2,3-triazol-4-)methoxy)isoindolin-2-) piperidine-2,6-dione] | < 150
O=C1CCC(N2Cc3c(OC[C@H]4CCN(c5ccnc6ccccc56)C4)cccc3C2=O)C(=O)N1 (stereo partly drawn) [Compound 65, 3-(1-oxo-4-(((S)-1-(quinolin-4-)pyrrolin-3-)methoxy)isoindolin-2-) piperidine-2,6-dione] | 150 to 20000
O=C1CCC(N2Cc3c(OCc4cn(Cc5ccnc6ccccc56)nn4)cccc3C2=O)C(=O)N1 (stereo not drawn) [Compound 4] | < 150
O=C1CCC(N2Cc3c(OC[C@@H]4CCN(c5ccnc6ccccc56)C4)cccc3C2=O)C(=O)N1 (stereo partly drawn) [Compound 66, 3-(1-oxo-4-(((R)-1-(quinolin-4-)pyrrolin-3-)methoxy)isoindolin-2-) piperidine-2,6-dione] | 150 to 20000
Cc1c(COc2cccc3c2CN(C2CCC(=O)NC2=O)C3=O)cnn1-c1c(Cl)cc(C(F)(F)F)cc1Cl (stereo not drawn) [Compound 83] | < 150
O=C1CCC(N2Cc3c(CCc4cnc(-c5ccc(OC(F)(F)F)cc5)o4)cccc3C2=O)C(=O)N1 (stereo not drawn) [Compound 62, 3-(1-oxo-4-(2-(2-(4-(trifluoromethoxy)phenyl)oxazol-5-yl)ethyl)isoindolin-2-yl) piperidine-2,6-dione] | < 150
COCCn1ccc2cc(-n3cc(COc4cccc5c4C(=O)N([C@@]4(C)CCC(=O)NC4=O)C5=O)nn3)ccc21 [Compound 37, (S)-4-((1-(1-(2-methoxyethyl)-1H-indole-5-)-1H-1,2,3-triazol-4-)methoxy)-2-(3-methyl-2,6-dioxopiperidine-3-) isoindolin-1,3-dione] | 150 to 20000
O=C1CCC(N2Cc3c(OCc4cnc(-c5nc6ccccc6s5)s4)cccc3C2=O)C(=O)N1 (stereo not drawn) [Compound 46, 3-(4-(2-(benzo[d]thiazol-2-)thiazol-5-)methoxy)-1-oxoisoindolin-2-) piperidine-2,6-dione] | < 150
O=C1CCC(N2Cc3c(OCc4cn(Cc5ccc(N6CCOCC6)cc5)nn4)cccc3C2=O)C(=O)N1 (stereo not drawn) [Compound 8, 3-(4-((1-(4-morpholinbenzyl)-1H-1,2,3-triazol-4-)methoxy)-1-oxoisoindolin-2-) piperidine-2,6-dione] | < 150
COC[C@@H](Cc1ccccc1)n1cc(COc2cccc3c2CN(C2CCC(=O)NC2=O)C3=O)nn1 (stereo partly drawn) [Compound 52] | < 150
O=C1CCC(N2Cc3c(OCc4cn(C5C6CC7CC(C6)CC5C7)nn4)cccc3C2=O)C(=O)N1 [Compound 87, 3-(4-((1-((1R, 3R, 5R, 7R)-adamantan-2-yl)-1H-1,2,3-triazol-4-yl)methoxy)-1-isoindolin-2-yl) piperidin-2,6-dione] | < 150
[2H]c1c([2H])c([2H])c(-n2cc(COc3cc(F)cc4c3CN(C3CCC(=O)NC3=O)C4=O)nn2)c([2H])c1[2H] (stereo not drawn) [Compound 79, 3-(6-fluoro-1-oxo-4-((1-(phenyl-D5)-1H-1,2,3-triazol-4-yl)methoxy)isoindolin-2-yl) piperidine-2,6-dione] | < 150
CN(C)C[C@@H](Cc1ccccc1)n1cc(COc2cccc3c2CN(C2CCC(=O)NC2=O)C3=O)nn1 (stereo partly drawn) [Compound 57] | < 150
O=C1CCC(N2Cc3c(OCc4cn(-c5ccc(OC6CC6)cc5)nn4)cccc3C2=O)C(=O)N1 (stereo not drawn) [Compound 32] | < 150
O=C1CCC(N2Cc3c(OCc4cn([C@H](CO)Cc5ccccc5)nn4)cccc3C2=O)C(=O)N1 (stereo partly drawn) [Compound 54] | 150 to 20000
O=C1CCC(N2Cc3c(OCc4cn(Cc5ccc6[nH]cnc6c5)nn4)cccc3C2=O)C(=O)N1 (stereo not drawn) [Compound 13] | 150 to 20000
